“And” between values parts separate entries of the source, which are not always exact repeats. Identical values can stand only once.
Columns and labels:
[1] = biological target: Metabotropic glutamate receptor 2 (Homo sapiens, UniProt Q14416); experiment: Concentration for half maximal activation of metabotropic glutamate mGluR2 in human
[2] = biological target: Metabotropic glutamate receptor 2 (Rattus norvegicus, UniProt P31421); experiment: Concentration for half maximal activation of metabotropic glutamate mGluR2 in rat
[3] = biological target: Metabotropic glutamate receptor 3 (Rattus norvegicus, UniProt P31422); experiment: Concentration for half maximal activation of metabotropic glutamate mGluR3 in rat
Metabotropic glutamate receptor 3, sequence (P31422 whole entry): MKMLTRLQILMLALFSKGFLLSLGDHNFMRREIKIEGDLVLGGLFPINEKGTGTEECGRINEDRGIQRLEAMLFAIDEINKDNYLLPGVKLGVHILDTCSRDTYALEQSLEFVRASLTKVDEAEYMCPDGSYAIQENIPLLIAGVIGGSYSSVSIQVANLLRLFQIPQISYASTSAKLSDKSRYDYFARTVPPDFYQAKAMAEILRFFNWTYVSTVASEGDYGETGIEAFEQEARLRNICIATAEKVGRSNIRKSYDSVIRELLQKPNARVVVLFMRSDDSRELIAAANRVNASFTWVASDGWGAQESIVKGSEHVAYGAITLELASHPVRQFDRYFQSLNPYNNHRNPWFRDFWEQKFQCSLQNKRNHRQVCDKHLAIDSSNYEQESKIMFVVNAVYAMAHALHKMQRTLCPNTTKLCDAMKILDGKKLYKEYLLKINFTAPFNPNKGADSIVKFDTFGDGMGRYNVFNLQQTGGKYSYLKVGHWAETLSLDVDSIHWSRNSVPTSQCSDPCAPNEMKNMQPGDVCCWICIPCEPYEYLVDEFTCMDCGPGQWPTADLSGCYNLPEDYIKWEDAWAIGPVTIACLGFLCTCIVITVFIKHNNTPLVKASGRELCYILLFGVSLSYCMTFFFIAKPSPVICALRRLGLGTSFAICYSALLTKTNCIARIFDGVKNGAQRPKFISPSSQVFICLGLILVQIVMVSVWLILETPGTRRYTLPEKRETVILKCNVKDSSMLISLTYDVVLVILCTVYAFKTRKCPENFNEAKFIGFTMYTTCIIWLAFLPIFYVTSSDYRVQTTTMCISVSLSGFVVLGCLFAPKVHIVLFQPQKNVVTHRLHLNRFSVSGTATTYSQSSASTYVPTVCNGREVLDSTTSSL

[4] = biological target: T1, Metabotropic glutamate receptor 1 (Rattus norvegicus, UniProt P23385); experiment: Concentration for half maximal activation of metabotropic glutamate mGluR1a in rat
[5] = biological target: Metabotropic glutamate receptor 4 (Rattus norvegicus, UniProt P31423); experiment: Concentration for half maximal activation of metabotropic glutamate mGluR4a in rat
Metabotropic glutamate receptor 4 (Rattus norvegicus, UniProt P31423), sequence (P31423 whole entry): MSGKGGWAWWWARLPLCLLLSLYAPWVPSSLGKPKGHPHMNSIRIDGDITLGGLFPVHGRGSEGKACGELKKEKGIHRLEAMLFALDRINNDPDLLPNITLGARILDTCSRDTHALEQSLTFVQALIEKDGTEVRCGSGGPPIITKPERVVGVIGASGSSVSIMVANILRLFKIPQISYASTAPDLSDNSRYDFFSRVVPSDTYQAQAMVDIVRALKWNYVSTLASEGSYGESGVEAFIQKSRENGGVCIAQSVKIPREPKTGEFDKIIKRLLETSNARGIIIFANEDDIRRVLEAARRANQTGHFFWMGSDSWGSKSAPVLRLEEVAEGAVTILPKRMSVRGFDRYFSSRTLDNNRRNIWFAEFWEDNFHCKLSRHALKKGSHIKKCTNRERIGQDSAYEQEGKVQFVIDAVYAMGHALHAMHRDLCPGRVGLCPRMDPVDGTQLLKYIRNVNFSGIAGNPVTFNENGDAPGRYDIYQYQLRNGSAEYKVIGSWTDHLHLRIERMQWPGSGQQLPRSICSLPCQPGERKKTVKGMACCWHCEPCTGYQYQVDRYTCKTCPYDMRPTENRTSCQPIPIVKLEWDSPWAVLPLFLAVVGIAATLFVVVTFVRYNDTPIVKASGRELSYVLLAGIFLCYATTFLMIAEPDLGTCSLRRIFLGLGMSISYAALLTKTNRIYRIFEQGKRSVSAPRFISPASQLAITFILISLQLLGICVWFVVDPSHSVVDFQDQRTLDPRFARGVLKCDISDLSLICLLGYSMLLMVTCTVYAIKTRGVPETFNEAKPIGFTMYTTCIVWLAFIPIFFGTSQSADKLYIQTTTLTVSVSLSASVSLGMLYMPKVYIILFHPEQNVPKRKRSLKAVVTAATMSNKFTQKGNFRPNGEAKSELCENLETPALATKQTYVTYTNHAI

[6] = biological target: Metabotropic glutamate receptor 7 (Homo sapiens, UniProt Q14831); experiment: Concentration for half maximal activation of metabotropic glutamate mGluR7 in human
Metabotropic glutamate receptor 7 (Homo sapiens, UniProt Q14831), sequence (Q14831 whole entry): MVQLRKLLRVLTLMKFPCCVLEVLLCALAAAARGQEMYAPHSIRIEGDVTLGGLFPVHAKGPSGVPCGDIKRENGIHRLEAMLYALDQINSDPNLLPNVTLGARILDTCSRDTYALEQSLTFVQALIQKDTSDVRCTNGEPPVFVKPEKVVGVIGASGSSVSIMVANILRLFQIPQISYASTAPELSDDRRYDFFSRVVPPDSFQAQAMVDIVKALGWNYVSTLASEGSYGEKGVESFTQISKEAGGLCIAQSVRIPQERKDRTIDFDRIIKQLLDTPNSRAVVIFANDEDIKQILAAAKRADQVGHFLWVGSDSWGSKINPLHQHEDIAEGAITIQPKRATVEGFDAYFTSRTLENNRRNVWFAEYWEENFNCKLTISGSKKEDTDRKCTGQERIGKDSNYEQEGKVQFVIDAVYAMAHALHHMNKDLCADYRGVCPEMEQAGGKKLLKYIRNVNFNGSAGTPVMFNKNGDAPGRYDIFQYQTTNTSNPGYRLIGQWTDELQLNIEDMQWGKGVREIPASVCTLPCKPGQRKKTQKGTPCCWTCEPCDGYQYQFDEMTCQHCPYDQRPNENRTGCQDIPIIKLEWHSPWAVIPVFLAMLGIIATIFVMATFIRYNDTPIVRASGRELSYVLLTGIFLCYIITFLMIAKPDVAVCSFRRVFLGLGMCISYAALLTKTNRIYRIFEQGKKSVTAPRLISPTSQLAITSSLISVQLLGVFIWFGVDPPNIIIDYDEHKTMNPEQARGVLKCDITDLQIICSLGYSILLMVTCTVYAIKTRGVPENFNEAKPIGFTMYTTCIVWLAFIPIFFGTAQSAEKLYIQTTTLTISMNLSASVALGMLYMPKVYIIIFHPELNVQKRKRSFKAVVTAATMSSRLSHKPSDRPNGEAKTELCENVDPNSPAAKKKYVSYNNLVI

[7] = biological target: Metabotropic glutamate receptor 7 (Rattus norvegicus, UniProt P35400); experiment: Concentration for half maximal activation of metabotropic glutamate mGluR7 in rat
Metabotropic glutamate receptor 7 (Rattus norvegicus, UniProt P35400), sequence (P35400 whole entry): as the sequence (Q14831 whole entry) above, with R5G, A27V, N454H, S488T, A520S, D578N counted along it

[8] = biological target: Metabotropic glutamate receptor 4 (Homo sapiens, UniProt Q14833); experiment: Concentration for half maximal activation of metabotropic glutamate mGluR4a in human
[9] = biological target: T1, Metabotropic glutamate receptor 1; experiment: Concentration for half maximal activation of metabotropic glutamate mGluR1c in rat
[10] = biological target: Metabotropic glutamate receptor 6 (Rattus norvegicus, UniProt P35349); experiment: Concentration for half maximal activation of metabotropic glutamate mGluR6 in rat
Metabotropic glutamate receptor 6, sequence (P35349 whole entry): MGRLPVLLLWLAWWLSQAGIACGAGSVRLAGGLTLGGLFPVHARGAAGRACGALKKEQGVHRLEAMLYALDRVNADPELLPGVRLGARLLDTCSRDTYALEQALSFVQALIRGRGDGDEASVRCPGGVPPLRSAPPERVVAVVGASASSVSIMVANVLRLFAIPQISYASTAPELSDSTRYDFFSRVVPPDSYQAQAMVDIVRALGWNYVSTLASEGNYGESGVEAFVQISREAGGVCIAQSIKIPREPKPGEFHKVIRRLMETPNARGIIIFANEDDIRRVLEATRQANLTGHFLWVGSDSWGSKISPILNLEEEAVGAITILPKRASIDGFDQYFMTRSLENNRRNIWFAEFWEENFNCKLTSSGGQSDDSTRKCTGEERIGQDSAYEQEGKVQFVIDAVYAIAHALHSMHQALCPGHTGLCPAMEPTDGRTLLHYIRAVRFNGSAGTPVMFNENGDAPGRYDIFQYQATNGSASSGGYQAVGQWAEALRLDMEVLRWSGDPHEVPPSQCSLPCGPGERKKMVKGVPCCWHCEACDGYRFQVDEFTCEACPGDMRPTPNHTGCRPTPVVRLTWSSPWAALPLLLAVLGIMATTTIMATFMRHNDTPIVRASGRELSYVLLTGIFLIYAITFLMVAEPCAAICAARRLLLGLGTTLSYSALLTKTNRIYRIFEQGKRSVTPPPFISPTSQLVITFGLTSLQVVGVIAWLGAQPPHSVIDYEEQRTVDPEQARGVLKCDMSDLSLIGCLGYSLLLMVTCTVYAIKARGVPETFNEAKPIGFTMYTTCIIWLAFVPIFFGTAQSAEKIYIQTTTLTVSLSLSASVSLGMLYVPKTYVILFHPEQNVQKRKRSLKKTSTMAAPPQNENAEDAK

[11] = biological target: Metabotropic glutamate receptor 8 (Mus musculus, UniProt P47743); experiment: Concentration for half maximal activation of metabotropic glutamate mGluR8 in mouse; type: single protein
[12] = biological target: T2, Metabotropic glutamate receptor 5 (Rattus norvegicus, UniProt P31424); experiment: Concentration for half maximal activation of metabotropic glutamate mGluR5a in rat
T2 sequence (P31424 whole entry): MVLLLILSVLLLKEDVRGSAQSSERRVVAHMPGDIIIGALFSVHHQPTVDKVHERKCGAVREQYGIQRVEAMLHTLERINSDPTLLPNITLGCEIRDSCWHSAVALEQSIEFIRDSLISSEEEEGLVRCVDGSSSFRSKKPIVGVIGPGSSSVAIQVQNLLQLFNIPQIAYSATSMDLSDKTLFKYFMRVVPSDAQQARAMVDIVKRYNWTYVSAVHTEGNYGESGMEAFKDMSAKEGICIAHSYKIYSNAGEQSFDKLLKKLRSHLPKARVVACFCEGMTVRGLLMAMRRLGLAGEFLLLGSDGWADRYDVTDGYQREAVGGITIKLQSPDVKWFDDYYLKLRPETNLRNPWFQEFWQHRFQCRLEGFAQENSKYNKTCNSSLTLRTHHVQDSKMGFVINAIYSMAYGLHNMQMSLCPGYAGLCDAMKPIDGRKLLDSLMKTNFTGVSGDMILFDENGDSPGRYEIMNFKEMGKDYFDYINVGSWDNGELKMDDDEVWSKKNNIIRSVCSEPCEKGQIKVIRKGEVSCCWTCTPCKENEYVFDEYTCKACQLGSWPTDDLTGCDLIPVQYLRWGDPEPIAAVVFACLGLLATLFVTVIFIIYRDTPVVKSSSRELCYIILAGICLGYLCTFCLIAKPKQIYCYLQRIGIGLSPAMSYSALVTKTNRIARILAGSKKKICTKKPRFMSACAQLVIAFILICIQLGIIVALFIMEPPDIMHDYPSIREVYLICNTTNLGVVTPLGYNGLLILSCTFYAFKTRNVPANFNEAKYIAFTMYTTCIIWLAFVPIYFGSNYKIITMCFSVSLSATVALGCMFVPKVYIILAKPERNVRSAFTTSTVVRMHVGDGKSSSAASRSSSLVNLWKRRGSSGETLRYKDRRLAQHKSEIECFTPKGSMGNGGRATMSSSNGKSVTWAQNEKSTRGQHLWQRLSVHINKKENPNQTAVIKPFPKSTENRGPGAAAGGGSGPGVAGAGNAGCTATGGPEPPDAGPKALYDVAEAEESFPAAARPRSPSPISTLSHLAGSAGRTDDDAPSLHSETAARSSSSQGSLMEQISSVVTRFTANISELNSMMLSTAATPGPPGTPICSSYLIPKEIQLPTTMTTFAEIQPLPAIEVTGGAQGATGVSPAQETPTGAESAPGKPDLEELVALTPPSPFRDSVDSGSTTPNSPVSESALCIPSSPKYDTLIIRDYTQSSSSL

[13] = biological target: T2, Metabotropic glutamate receptor 5; experiment: Concentration for half maximal activation of metabotropic glutamate mGluR5b in rat
[14] = biological target: T1, Metabotropic glutamate receptor 1; experiment: Concentration for half maximal activation of metabotropic glutamate mGluR1b in rat
[15] = biological target: Metabotropic glutamate receptor 5 (Homo sapiens, UniProt P41594); experiment: Concentration for half maximal activation of metabotropic glutamate mGluR5a in human

Structure (SMILES): N[C@H](C(=O)O)[C@H]1C[C@@H]1C(=O)O
- EC50 [1]: 0.38 µM
- EC50 [2]: 0.75 µM

Structure (SMILES): N[C@H](C(=O)O)C1[C@@H](C(=O)O)[C@@H]1C(=O)O (stereo partly specified)
- EC50 [2]: 0.3 µM
- EC50 [3]: 0.3 µM
- EC50 [4]: > 1000 µM
- EC50 [5]: > 1000 µM

Structure (SMILES): N[C@@H](CCP(=O)(O)O)C(=O)O
- EC50 [6]: 200 µM
- EC50 [1]: > 1000 µM
- EC50 [2]: > 1000 µM
- EC50 [7]: 160 µM and 500 µM
- EC50 [8]: 0.2 µM
- EC50 [9]: > 1000 µM
- EC50 [10]: 0.9 µM
- EC50 [11]: 0.4 µM
- EC50 [5]: 0.5 µM and 1.2 µM

Structure (SMILES): N[C@@]1(C(=O)O)CC[C@@H](C(=O)O)C1
- EC50 [6]: > 1000 µM
- EC50 [1]: 12.1 µM
- EC50 [2]: 5 µM and 7.7 µM
- EC50 [7]: > 1000 µM
- EC50 [3]: 8 µM
- EC50 [12]: 50 µM
- EC50 [10]: > 200 µM
- EC50 [11]: > 100 µM
- EC50 [5]: > 100 µM and 39 µM

Structure (SMILES): N[C@@H](COP(=O)(O)O)C(=O)O [DEXFOSFOSERINE]
- EC50 [6]: < 200 µM
- EC50 [7]: 160 µM
- EC50 [8]: 1.3 µM
- EC50 [10]: 2.7 µM
- EC50 [5]: 4 µM

Structure (SMILES): N[C@@H](CCC(=O)O)C(=O)O [GLUTAMIC ACID]
- EC50 [6]: > 500 µM
- EC50 [7]: 1000 µM and 1300 µM
- EC50 [3]: 3 µM
- EC50 [10]: 16 µM
- EC50 [11]: 0.022 µM
- EC50 [5]: 5 µM and 3.2 µM

Structure (SMILES): N[C@H](C(=O)O)c1cc(=O)[nH]o1 [IBOTENIC ACID]
- EC50 [13]: 8 µM
- EC50 [3]: 10 µM
- EC50 [12]: 10 µM and 8 µM
- EC50 [9]: 60 µM
- EC50 [14]: 44 µM
- EC50 [10]: 1000 µM
- EC50 [11]: > 100 µM
- EC50 [4]: 6 µM
- EC50 [5]: 590 µM

Structure (SMILES): N[C@@H](Cn1oc(=O)[nH]c1=O)C(=O)O [QUISQUALATE]
- EC50 [6]: > 1000 µM
- EC50 [13]: 0.2 µM
- EC50 [1]: > 1000 µM
- EC50 [2]: > 1000 µM
- EC50 [7]: > 1000 µM
- EC50 [15]: 0.15 µM
- EC50 [8]: > 500 µM
- EC50 [3]: 40 µM
- EC50 [12]: 0.3 µM and 0.2 µM
- EC50 [10]: 1000 µM
- EC50 [11]: > 100 µM
- EC50 [5]: > 100 µM and 129 µM
